Reference: ChEMBL document CHEMBL3217485, “Understanding and overcoming aminoglycoside resistance caused by N-6'-acetyltransferase” (Medchemcomm, 2012)
Values after ≈ are worked out from the molar mass of the structure shown. One block for each compound: values may come before it. Active and inactive are the calls of the source. The rule behind the calls is not given here. Where a SMILES comes first, the peptide text is derived from it.

Legend:
[1] = Inhibition of AAC(6')-li (unknown origin)
[2] = Inhibition of AAC(6')-le (unknown origin)
Aac(6')-Ii protein = Aac(6')-Ii protein (Enterococcus faecium, UniProt Q47764); assay: Inhibition of Enterococcus faecium AAC(6')-li
Sequence of Aac(6')-Ii protein (Q47764 whole entry): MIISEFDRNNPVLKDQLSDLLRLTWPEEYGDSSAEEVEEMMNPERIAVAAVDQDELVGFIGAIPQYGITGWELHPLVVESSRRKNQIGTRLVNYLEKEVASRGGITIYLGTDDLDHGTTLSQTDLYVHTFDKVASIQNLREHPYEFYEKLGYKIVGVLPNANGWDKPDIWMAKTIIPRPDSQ

Escherichia coli = assay: Antibacterial activity against kanamycin-resistant Escherichia coli K-12 R5 expressing AAC(6') enzyme; type: functional
Pseudomonas aeruginosa = assay: Antibacterial activity against kanamycin-resistant Pseudomonas aeruginosa GN315 expressing AAC(6') enzyme; type: functional
[3] = Binding affinity to AAC(6')-lb (unknown origin)

- Ki [1]: 5.2 µM
Compound: CC(C)(COP(=O)(O)OP(=O)(O)OC[C@H]1O[C@@H](n2cnc3c(N)ncnc32)[C@H](O)[C@@H]1OP(=O)(O)O)[C@@H](O)C(=O)NCCC(=O)NCCSCCCCCC(=O)NC[C@H]1O[C@H](O[C@H]2[C@H](O)[C@@H](O)[C@H](N)C[C@@H]2N)[C@H](N)[C@@H](O)[C@@H]1O

- inhibition [1]: inactive
- inhibition [2]: inactive
Compound: CC(C)C[C@H](NC(=O)[C@H](CCCNC(=N)N)NC(=O)CNC(=O)CNC(=O)[C@@H](N)CCCNC(=N)N)C(=O)N[C@@H](CS)C(=O)N[C@@H](Cc1ccc(O)cc1)C(=O)N[C@@H](CS)C(=O)N[C@@H](CCCNC(=N)N)C(=O)N[C@@H](CCCNC(=N)N)C(=O)N[C@@H](CCCNC(=N)N)C(=O)N[C@@H](Cc1ccccc1)C(=O)N[C@@H](CS)C(=O)N[C@H](C(=O)N[C@@H](CS)C(=O)N[C@H](C(=O)NCC(=O)N[C@@H](CCCNC(=N)N)C(=O)O)C(C)C)C(C)C (H-RGGRLCYCRRRFCVCVGR-OH)

- Ki (Aac(6')-Ii protein): ≥ 500 µM
Compound: CC(C)(CO)[C@@H](O)C(=O)NCCC(=O)NCCSCCCC(=O)NC[C@H]1O[C@H](O[C@H]2[C@H](O)[C@@H](O)[C@H](N)C[C@@H]2N)[C@H](N)[C@@H](O)[C@@H]1O

- IC50 [1]: 13 µM
- inhibition [2]: inactive
Compound: CC[C@H](C)[C@H](N)C(=O)N[C@@H](CC(C)C)C(=O)N1CCC[C@H]1C(=O)N[C@@H](Cc1c[nH]c2ccccc12)C(=O)N[C@@H](CCCCN)C(=O)N[C@@H](Cc1c[nH]c2ccccc12)C(=O)N1CCC[C@H]1C(=O)N[C@@H](Cc1c[nH]c2ccccc12)C(=O)N[C@@H](Cc1c[nH]c2ccccc12)C(=O)N1CCC[C@H]1C(=O)N[C@@H](Cc1c[nH]c2ccccc12)C(=O)N[C@@H](CCCN=C(N)N)C(=O)N[C@@H](CCCN=C(N)N)C(N)=O

- Ki (Aac(6')-Ii protein): ≥ 500 µM
Compound: CC(C)(CO)[C@@H](O)C(=O)NCCC(=O)NCCSCCC(=O)NC[C@H]1O[C@H](O[C@H]2[C@H](O)[C@@H](O)[C@H](N)C[C@@H]2N)[C@H](N)[C@@H](O)[C@@H]1O

- Ki [1]: 0.076 µM
Compound: CC(C)(COP(=O)(O)OP(=O)(O)OC[C@H]1O[C@@H](n2cnc3c(N)ncnc32)[C@H](O)[C@@H]1OP(=O)(O)O)[C@@H](O)C(=O)NCCC(=O)NCCSCC(=O)NC[C@H]1O[C@H](O[C@H]2[C@H](O)[C@@H](O)[C@H](N)C[C@@H]2N)[C@H](N)[C@@H](O)[C@@H]1O

- inhibition [1]: inactive
- IC50 [2]: 21 µM
Compound: CC[C@H](C)[C@H](NC(=O)[C@H](CC(C)C)NC(=O)[C@H](C)NC(=O)[C@@H]1CCCN1C(=O)[C@H](CC(C)C)NC(=O)CNC(=O)[C@@H](NC(=O)[C@@H](NC(=O)[C@H](CC(C)C)NC(=O)[C@@H](NC(=O)[C@H](CCCCN)NC(=O)[C@H](CCCCN)NC(=O)[C@@H](NC(=O)[C@H](C)NC(=O)[C@@H](NC(=O)[C@@H](NC(=O)[C@H](CC(C)C)NC(=O)[C@H](CCCCN)NC(=O)[C@H](CCCCN)NC(=O)[C@@H](NC(=O)[C@H](Cc1ccccc1)NC(=O)[C@H](CO)NC(=O)[C@H](CCCCN)NC(=O)[C@H](Cc1c[nH]c2ccccc12)NC(=O)[C@@H](N)CCCCN)[C@@H](C)CC)[C@@H](C)O)[C@@H](C)O)C(C)C)C(C)C)[C@@H](C)O)[C@@H](C)O)C(=O)N[C@@H](CO)C(=O)O

- inhibition [1]: inactive
- IC50 [2]: 38 µM
Compound: H-KWKSFIKKLTSAAKKVTTAAKPLTK-OH

- Ki (Aac(6')-Ii protein): ≥ 500 µM
Compound: CC(C)(CO)[C@@H](O)C(=O)NCCC(=O)NCCSCCCCC(=O)NC[C@H]1O[C@H](O[C@H]2[C@H](O)[C@@H](O)[C@H](N)C[C@@H]2N)[C@H](N)[C@@H](O)[C@@H]1O

- Ki (Aac(6')-Ii protein): ≥ 200 µM
Compound: CC(=O)CC(=O)NCC(C)(C)[C@@H](O)C(=O)NCCC(=O)NCCSCC(=O)NC[C@H]1O[C@H](O[C@H]2[C@H](O)[C@@H](O)[C@H](N)C[C@@H]2N)[C@H](N)[C@@H](O)[C@@H]1O

- Ki (Aac(6')-Ii protein): ≥ 200 µM
Compound: CC(=O)CC(=O)N(CCCc1ccccc1)CC(C)(C)[C@@H](O)C(=O)NCCC(=O)NCCSCC(=O)NC[C@H]1O[C@H](O[C@H]2[C@H](O)[C@@H](O)[C@H](N)C[C@@H]2N)[C@H](N)[C@@H](O)[C@@H]1O

Compound: CNC[C@H]1O[C@H](O[C@H]2[C@H](O)[C@@H](O[C@@H]3O[C@@H](CO)[C@H](O)[C@@H](N)[C@@H]3O)[C@H](N)C[C@@H]2N)[C@H](O)[C@@H](O)[C@@H]1O
- MIC (Escherichia coli): 1.56 µg/mL (≈ 3.13 µM)
- MIC (Pseudomonas aeruginosa): > 100 µg/mL

- Kd [3]: 41 µM
Compound: N[C@@H]1C[C@H](N)[C@@H](O)C1

- Ki (Aac(6')-Ii protein): ≥ 200 µM
Compound: CC(=O)CC(=O)N(CCc1ccccc1)CC(C)(C)[C@@H](O)C(=O)NCCC(=O)NCCSCC(=O)NC[C@H]1O[C@H](O[C@H]2[C@H](O)[C@@H](O)[C@H](N)C[C@@H]2N)[C@H](N)[C@@H](O)[C@@H]1O

- IC50 [1]: 4.4 µM
- inhibition [2]: inactive
Compound: H-ILAWKWAWWAWRR-OH

- Kd [3]: 20 µM
Compound: N#Cc1ccc(O[C@H]2C[C@H](N)C[C@@H]2N)cc1

Compound: CNC[C@H]1O[C@H](O[C@H]2[C@H](O)[C@@H](O[C@@H]3O[C@@H](CO)[C@H](O)[C@@H](N)[C@@H]3O)[C@H](NC(=O)[C@@H](O)CCN)C[C@@H]2N)[C@H](O)[C@@H](O)[C@@H]1O
- MIC (Escherichia coli): 1.56 µg/mL (≈ 2.6 µM)
- MIC (Pseudomonas aeruginosa): 25 µg/mL (≈ 41.7 µM)

- Ki (Aac(6')-Ii protein): ≥ 200 µM
Compound: CC(=O)CC(=O)N(Cc1ccccc1)CC(C)(C)[C@@H](O)C(=O)NCCC(=O)NCCSCC(=O)NC[C@H]1O[C@H](O[C@H]2[C@H](O)[C@@H](O)[C@H](N)C[C@@H]2N)[C@H](N)[C@@H](O)[C@@H]1O

Compound: CNC[C@@H]1CC[C@@H](N)[C@@H](O[C@H]2[C@H](O)[C@@H](O[C@@H]3O[C@@H](CO)[C@H](O)[C@@H](N)[C@@H]3O)[C@H](N)C[C@@H]2N)O1
- MIC (Escherichia coli): 1.56 µg/mL (≈ 3.35 µM)
- MIC (Pseudomonas aeruginosa): 12.5 µg/mL (≈ 26.9 µM)
